Experimental data taken from patent publication US20240342201A1, “ASYMMETRIC GPR84 ANTAGONIST AND USE THEREOF” (priority 2021, published 2024).

Biological target: GPR84 (Homo sapiens, UniProt Q9NQS5)
Assay: GPR84 antagonistic activity, calcium flux (Fluo-4) assay with agonist 6-OAU
Assay type: cell-based
Design: expressed in transfected cells; host or cells: HEK293
Conditions: not given
Method: The human GPR84 cell line was obtained by transfecting a HEK293 cell line with a plasmid encoding GPR84 and Gα16 proteins. Fluorescent dye Fluo-4AM was purchased from Invitrogen.
Intracellular Ca^2+ ion is a very important second messenger of G protein-coupled receptor signaling pathway. […] Fluo-4 is a Ca^2+ ion-specific fluorescent probe that binds quantitatively to Ca^2+ ions and emits fluorescence.
Detection of receptor inhibitory effect by GPR84 antagonist: After incubated with fluorescent dye Fluo-4, GPR84 cells were incubated with different concentrations of antagonistic compounds for a period of time to occupy the binding site of agonist to GPR84 (antagonistic binding site). A certain concentration of agonist (6-n-octylaminouracil, 6-OAU) was added to compete with the antagonist compound for binding sites. […] The half-inhibitory concentration (IC50) of the compound was calculated by using GraphPad PRISM software.
The above ingredients were weighed and dissolved in ultrapure water. pH was adjusted to 7.4 by using hydrochloric acid or NaOH solution. The mixture was filtered and stored at 4° C. for one month.
The buffer was prepared on site.
The cells were seeded in a 96-well plate at a density of 4×10^4 cells/well. After 24 hours of culture, the culture medium was removed, and 40 μL of Fluo-4AM fluorescent staining solution was added to each well and incubated in a 37° C. incubator for 40 minutes. After the dye was aspirated and discarded, 50 μL of the tested compound was added and incubated at room temperature for 10 minutes.

Chain of GPR84 (Q9NQS5 whole entry): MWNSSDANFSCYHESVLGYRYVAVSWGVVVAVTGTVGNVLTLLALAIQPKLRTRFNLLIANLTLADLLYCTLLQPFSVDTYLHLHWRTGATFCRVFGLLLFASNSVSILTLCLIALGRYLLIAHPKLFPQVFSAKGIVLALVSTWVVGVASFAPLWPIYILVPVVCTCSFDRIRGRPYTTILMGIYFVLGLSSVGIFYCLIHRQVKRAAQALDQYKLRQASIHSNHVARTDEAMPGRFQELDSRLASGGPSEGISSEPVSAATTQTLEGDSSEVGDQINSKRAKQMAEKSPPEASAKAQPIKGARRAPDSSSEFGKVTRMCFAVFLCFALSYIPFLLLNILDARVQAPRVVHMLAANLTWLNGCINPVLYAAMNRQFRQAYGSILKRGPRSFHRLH

Row | SMILES | IC50
1 | COc1cccc2c1Sc1ccccc1C=C2OP(=O)(O)OC1CCOC1 (stereo not shown) [LSX406] | 1000 to 10000 nM
2 | COc1cccc2c1Sc1ccccc1C=C2OP(=O)(O)Oc1ccc(F)cc1 [LSX430] | 1000 to 10000 nM
3 | CCCCCCCCP(=O)(O)OC1=Cc2ccccc2Sc2c(OC)cccc21 [LSX432] | 100 to 1000 nM
4 | COc1ccc(OP(=O)(O)OC2=Cc3ccccc3Sc3c(OC)cccc32)cc1 [LSX442] | 100 to 1000 nM
5 | COc1cccc2c1Sc1ccccc1C=C2OP(=O)(O)Oc1ccccc1C(C)C [LSX454] | 1000 to 10000 nM
6 | COc1cccc2c1Sc1ccccc1C=C2OP(=O)(O)Oc1ccc([N+](=O)[O-])cc1 [LSX457] | 1000 to 10000 nM
7 | COc1cccc2c1Sc1ccccc1C=C2OP(=O)(O)Oc1cccc2ccccc12 [LSX462a] | 100 to 1000 nM
8 | COc1cccc2c1Sc1ccccc1C=C2OP(=O)(O)Oc1ccc2ccccc2c1 [LSX462b] | 100 to 1000 nM
9 | COc1cccc2c1Sc1ccccc1C=C2OP(=O)(O)Oc1cc(C)ccc1C(C)C [LSX468a] | 100 to 1000 nM
10 | COc1cccc2c1Sc1ccccc1C=C2OP(=O)(O)Oc1cc(C(C)C)ccc1C [LSX468b] | 100 to 1000 nM
11 | COc1cccc2c1Sc1ccccc1C=C2OP(=O)(O)Oc1cc(Cl)ccc1Cl [LSX480] | 100 to 1000 nM
12 | CCCCCc1ccccc1OP(=O)(O)OC1=Cc2ccccc2Sc2c(OC)cccc21 [LSX482a] | 100 to 1000 nM
13 | CCCCCc1cccc(OP(=O)(O)OC2=Cc3ccccc3Sc3c(OC)cccc32)c1 [LSX482b] | < 100 nM
14 | CCCCCc1ccc(OP(=O)(O)OC2=Cc3ccccc3Sc3c(OC)cccc32)cc1 [LSX482c] | 100 to 1000 nM
15 | COc1cccc2c1Sc1ccccc1C=C2OP(=O)(O)Oc1ccc(Br)cc1 [LSX491a] | 100 to 1000 nM
16 | COc1cccc2c1Sc1ccccc1C=C2OP(=O)(O)Oc1c(C(C)C)cccc1C(C)C [LSX496] | 1000 to 10000 nM
17 | COc1cccc2c1Sc1ccccc1C=C2OP(=O)(O)Oc1ccc(Oc2ccccc2)cc1 [LSX504] | 1000 to 10000 nM
18 | CCCCCc1cc(CCCCC)cc(OP(=O)(O)OC2=Cc3ccccc3Sc3c(OC)cccc32)c1 [LSX552] | 100 to 1000 nM

Same assay, conditions: HEK293 cells with GPR84 and Gα16; Fluo-4 calcium signal; agonist 6-OAU around EC80

Row | SMILES | IC50
19 | CC1(C)[C@@H]2CC[C@@]1(C)[C@H](OP(=O)(O)OC1=Cc3c(Cl)cccc3Sc3ccccc31)C2 [LSX476g] | < 100 nM

Same assay, conditions: HEK293 cells with GPR84 and Gα16; Fluo-4 calcium signal; agonist 6-OAU around EC80; read-out: IC50

Row | SMILES | IC50
20 | COc1cccc2c1Sc1ccccc1C=C2OP(=O)(O)N1CCC(C)(C)CC1 [LSX431] | 1000 to 10000 nM

Same assay, conditions: IC50, HEK293 cells with GPR84 and Gα16; Fluo-4 calcium signal; agonist 6-OAU around EC80

Row | SMILES | IC50
21 | CC1(C)[C@@H]2CC[C@@]1(C)[C@H](OP(=O)(O)OC1=Cc3c(Cl)cccc3Sc3ccccc31)C2 (racemic) [LSX476b] | < 100 nM
22 | CC1(C)[C@H]2CC[C@]1(C)[C@H](OP(=O)(O)OC1=Cc3c(Cl)cccc3Sc3ccccc31)C2 (racemic) [LSX476d] | 100 to 1000 nM
23 | COc1cccc2c1Sc1ccccc1C=C2OP(=O)(O)OC [LSX350] | 1000 to 10000 nM
24 | CCCCCCOP(=O)(O)OC1=Cc2ccccc2Sc2c(OC)cccc21 [LSX420-3] | 100 to 1000 nM
25 | CC1(C)[C@@H]2CC[C@@](C)(C2)[C@@H]1OP(=O)(O)OC1=Cc2ccccc2Oc2ccccc21 [LSX426j] | 1000 to 10000 nM
26 | COc1cccc2c1Sc1ccccc1C=C2OP(=O)(O)OC1CCCCC1C (stereo not shown) [LSX432-2a] | 1000 to 10000 nM
27 | COc1cccc2c1Sc1ccccc1C=C2OP(=O)(O)OC1CCC(C)CC1 (stereo not shown) [LSX432-2c] | 1000 to 10000 nM
28 | COc1cccc2c1Sc1ccccc1C=C2OP(=O)(O)OCCc1ccccc1 [LSX440] | 1000 to 10000 nM
29 | CC1(C)[C@H]2CC[C@]1(C)[C@H](OP(=O)(O)OC1=Cc3ccccc3Sc3ccccc31)C2 [LSX442a] | 100 to 1000 nM
30 | CC1(C)[C@@H]2CC[C@@](C)(C2)[C@@H]1OP(=O)(O)OC1=Cc2ccccc2Sc2ccccc21 [LSX442j] | 1000 to 10000 nM
31 | COc1cccc2c1Sc1ccccc1C=C2OP(=O)(O)OCC1CC2CCC1C2 (stereo not shown) [LSX444-2] | 100 to 1000 nM
32 | COc1cccc2c1Sc1ccccc1C=C2OP(=O)(O)OC1C(C)CCCC1C (stereo not shown) [LSX446-2] | 1000 to 10000 nM
33 | CC/C=C\CCCCOP(=O)(O)OC1=Cc2ccccc2Sc2c(OC)cccc21 [LSX446] | 100 to 1000 nM
34 | CCCCCCCCOP(=O)(O)OC1=Cc2c(Cl)cccc2Sc2ccccc21 [LSX452] | 100 to 1000 nM
35 | COc1cccc2c1Oc1ccccc1C=C2OP(=O)(O)O[C@@H]1C(C)(C)[C@@H]2CC[C@@]1(C)C2 [LSX456j] | 1000 to 10000 nM
36 | CC1(C)[C@H]2CC[C@]1(C)[C@H](OP(=O)(O)OC1=Cc3c(F)cccc3Sc3ccccc31)C2 [LSX460a] | 100 to 1000 nM
37 | CC1(C)[C@@H]2CC[C@@](C)(C2)[C@@H]1OP(=O)(O)OC1=Cc2c(F)cccc2Sc2ccccc21 [LSX460j] | 100 to 1000 nM
38 | CCCCCCCCCOP(=O)(O)OC1=Cc2ccccc2Sc2c(OC)cccc21 [LSX462-3] | 100 to 1000 nM
39 | COc1cccc2c1Sc1ccccc1C=C2OP(=O)(O)OCCCCCCCCF [LSX466] | 1000 to 10000 nM
40 | COc1cccc2c1Sc1ccccc1C=C2OP(=O)(O)OC12CC3CC(CC(C3)C1)C2 [LSX470a] | 100 to 1000 nM

Row | SMILES | IC50
41 | COc1cccc2c1Sc1ccccc1C=C2OP(=O)(O)OC1C2CC3CC(C2)CC1C3 (stereo not shown) [LSX470b] | 100 to 1000 nM
42 | COc1cccc2c1Sc1ccccc1C=C2OP(=O)(O)OC1CCC(C(C)(C)C)CC1 (stereo not shown) [LSX474-2] | 100 to 1000 nM
43 | COc1cccc2c1Sc1ccccc1C=C2OP(=O)(O)OC1C(C)(C)CCCC1(C)C [LSX474-3] | 100 to 1000 nM
44 | COc1cccc2c1Sc1ccccc1C=C2OP(=O)(O)O[C@@H]1C[C@H](C)CC[C@H]1C(C)C [LSX474a] | < 100 nM
45 | COc1cccc2c1Sc1ccccc1C=C2OP(=O)(O)O[C@H]1C[C@@H](C)CC[C@@H]1C(C)C [LSX474b] | < 100 nM
46 | CC1(C)[C@H]2CC[C@]1(C)[C@H](OP(=O)(O)OC1=Cc3c(Cl)cccc3Sc3ccccc31)C2 [LSX476a] | < 100 nM
47 | CC1(C)[C@@H]2CC[C@@]1(C)[C@@H](OP(=O)(O)OC1=Cc3c(Cl)cccc3Sc3ccccc31)C2 [LSX476c] | 100 to 1000 nM
48 | CC1(C)[C@H]2CC[C@]1(C)[C@@H](OP(=O)(O)OC1=Cc3c(Cl)cccc3Sc3ccccc31)C2 [LSX476h] | 100 to 1000 nM
49 | COC(=O)CCCCCCCOP(=O)(O)OC1=Cc2ccccc2Sc2c(OC)cccc21 [LSX492] | 1000 to 10000 nM
50 | COc1cccc2c1Sc1ccccc1C=C2OP(=O)(O)OC12CC3CC(C)(CC(C)(C3)C1)C2 [LSX498] | 100 to 1000 nM
51 | CC1(C)[C@H]2CC[C@]1(C)[C@H](OP(=O)(O)OC1=Cc3ccccc3Sc3c(OC(F)(F)F)cccc31)C2 [LSX526a] | 100 to 1000 nM
52 | CC1(C)[C@@H]2CC[C@@](C)(C2)[C@@H]1OP(=O)(O)OC1=Cc2ccccc2Sc2c(OC(F)(F)F)cccc21 [LSX526j] | < 100 nM
53 | COc1cccc2c1Sc1ccccc1C=C2OP(=O)(O)OCCCCCCCCBr [LSX527] | 100 to 1000 nM
54 | CC1CC(C(C)(C)C)C(OP(=O)(O)OC2=Cc3c(Cl)cccc3Sc3ccccc32)C(C(C)(C)C)C1 (stereo not shown) [LSX548] | 1000 to 10000 nM
55 | COc1cccc2c1Sc1ccccc1C=C2OP(=O)(O)OC12CC3CC(C1)C(Nc1ncnc4[nH]ccc14)C(C3)C2 (stereo not shown) [LSX602] | < 100 nM
56 | COc1cccc2c1Sc1ccccc1C=C2OP(=O)(O)OC12CC3CC(C1)C(Nc1c(C(N)=O)cnc4[nH]ccc14)C(C3)C2 (stereo not shown) [LSX644] | 1000 to 10000 nM
57 | COc1cccc2c1Sc1ccccc1C=C2OP(=O)(O)O[C@@H]1CC[C@@]2(C)C(CC[C@H]3[C@@H]4CC[C@H]([C@H](C)CCC(=O)O)[C@@]4(C)CC[C@@H]32)C1 (stereo partly shown) [LSX694] | 100 to 1000 nM
58 | COc1cccc2c1Sc1ccccc1C=C2OP(=O)(O)O[C@@H]1CC[C@@]2(C)C(C1)C[C@@H](O)[C@H]1[C@@H]3CC[C@H]([C@H](C)CCC(=O)O)[C@@]3(C)CC[C@@H]12 (stereo partly shown) [LSX710] | 100 to 1000 nM
59 | COc1cccc2c1Sc1ccccc1C=C2OP(=O)(O)O[C@@H]1CC[C@@]2(C)[C@@H](C1)C[C@@H](O)[C@@H]1[C@@H]2C[C@H](O)[C@]2(C)[C@@H]([C@H](C)CCC(=O)O)CC[C@@H]12 [LSX726] | 1000 to 10000 nM
60 | COc1cccc2c1Sc1ccccc1C=C2OP(=O)(O)OCCCNC(=O)CC[C@@H](C)[C@H]1CC[C@H]2[C@@H]3[C@H](O)C[C@@H]4C[C@H](O)CC[C@]4(C)[C@H]3C[C@H](O)[C@]12C [LSX784] | 1000 to 10000 nM

Same assay, conditions: read-out: IC50

Row | SMILES | IC50
61 | COc1cccc2c1Sc1ccccc1C=C2OP(=O)(O)OC1COC(C)(C)C1 (stereo not shown) [LSX434-2] | 1000 to 10000 nM
